Results published in PubChem BioAssay AID328 (DTP/NCI, 2004).
Values joined by “and” are separate entries in the source; they are usually repeats but may differ in a detail not shown here. Identical values can stand only once. Toxic doses and inconclusive results are not listed.

Tested on: BDF1 mice, P388 leukemia ip, median survival T/C
Assay: NCI In Vivo Anticancer Drug Screen. Data for tumor model P388 Leukemia (intraperitoneal) in B6D2F1 (BDF1) mice
Settings: endpoint: median survival time, higher = longer survival
Procedure, shortened: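 Survival ratio, drug arm over vehicle arm, in mice with a transplanted tumour.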

[1] = dose: 50.0 mg/kg/injection, schedule: Q04DX003 (ip), vehicle: saline
[2] = dose: 100.0 mg/kg/injection, schedule: Q04DX003 (ip), vehicle: saline
[3] = dose: 200.0 mg/kg/injection, schedule: Q04DX003 (ip), vehicle: saline
[4] = dose: 100.0 mg/kg/injection, schedule: Q04DX003 (ip), vehicle: saline with Tween-80
[5] = dose: 200.0 mg/kg/injection, schedule: Q04DX003 (ip), vehicle: saline with Tween-80
[6] = dose: 400.0 mg/kg/injection, schedule: Q04DX003 (ip), vehicle: saline with Tween-80
[7] = dose: 100.0 mg/kg/injection, schedule: Q04DX003 (ip), vehicle: Klucel (hydroxypropylcellulose) (HPC)
[8] = dose: 50.0 mg/kg/injection, schedule: Q01DX009 (ip), vehicle: saline with Tween-80
[9] = dose: 100.0 mg/kg/injection, schedule: Q01DX009 (ip), vehicle: saline with Tween-80
[10] = dose: 200.0 mg/kg/injection, schedule: Q01DX009 (ip), vehicle: saline with Tween-80
[11] = dose: 100.0 mg/kg/injection, schedule: Q01DX001 (ip), vehicle: saline with Tween-80
[12] = dose: 200.0 mg/kg/injection, schedule: Q01DX001 (ip), vehicle: saline with Tween-80
[13] = dose: 12.5 mg/kg/injection, schedule: Q01DX009 (ip), vehicle: saline
[14] = dose: 400.0 mg/kg/injection, schedule: Q01DX009 (ip), vehicle: saline with Tween-80
[15] = dose: 50.0 mg/kg/injection, schedule: Q04DX003 (ip), vehicle: saline with Tween-80

`O=C(Nc1ccc(Cl)c(C(F)(F)F)c1)Nc1ccc(Oc2ccc(Cl)cc2)cc1S(=O)(=O)O` was tested, and the T/C [1] was 100 % of control, the T/C [2] was 95 % of control and the T/C [3] was 95 % of control.
In the case of `CCOC(=O)/C(Cc1cnc2ccccc2n1)=N\O`, the T/C [4] is reported as 95 % of control, the T/C [5] is reported as 100 % of control and the T/C [6] is reported as 100 % of control.
With `CC(C)(C)/C=N/Nc1ccc([N+](=O)[O-])cc1[N+](=O)[O-]` the T/C (dose: 50.0 mg/kg/injection, schedule: Q04DX003 (ip), vehicle: Klucel (hydroxypropylcellulose) (HPC)) was 104 % of control, the T/C (dose: 100.0 mg/kg/injection, schedule: Q01DX009 (ip), vehicle: Klucel (hydroxypropylcellulose) (HPC)) was 100 % of control and the T/C [7] was 104 % of control. For the same compound, the T/C (dose: 200.0 mg/kg/injection, schedule: Q01DX009 (ip), vehicle: Klucel (hydroxypropylcellulose) (HPC)) was 100 % of control, the T/C (dose: 200.0 mg/kg/injection, schedule: Q04DX003 (ip), vehicle: Klucel (hydroxypropylcellulose) (HPC)) was 109 % of control and the T/C (dose: 400.0 mg/kg/injection, schedule: Q01DX009 (ip), vehicle: Klucel (hydroxypropylcellulose) (HPC)) was 95 % of control.
For `C#CCOc1ccccc(Br)c1=O`, the T/C (dose: 50.0 mg/kg/injection, schedule: Q04DX002 (ip), vehicle: saline with Tween-80) was 115 % of control, the T/C (dose: 100.0 mg/kg/injection, schedule: Q04DX002 (ip), vehicle: saline with Tween-80) was 104 % of control and the T/C (dose: 200.0 mg/kg/injection, schedule: Q04DX002 (ip), vehicle: saline with Tween-80) was 106 % of control.
`O=C(O)C(CSC(c1ccccc1)(c1ccccc1)c1ccccc1)N=Cc1ccccc1O` (centres undefined) was tested, and the T/C [8] was 159 % of control, the T/C (dose: 66.0 mg/kg/injection, schedule: Q04DX003 (ip), vehicle: saline with Tween-80) was 104 % of control and the T/C [9] was 186 % of control. The T/C [4] was 190 % of control, the T/C (dose: 150.0 mg/kg/injection, schedule: Q04DX003 (ip), vehicle: saline with Tween-80) was 177 % of control and the T/C [10] was 272 % of control.
With `c1ccc(CCSc2ccccc2)cc1` the T/C [4] was 113 % of control, the T/C [5] was 109 % of control and the T/C [6] was 118 % of control.
For `COc1cc(Br)c(/C=C(\C)[N+](=O)[O-])cc1OC`, the T/C [11] was 109 % of control and the T/C [12] was 93 % of control.
In the case of `CCCCCCCC(=O)Nc1ccc(C)c(C)c1`, the T/C [4] is reported as 109 % of control, the T/C [5] is reported as 109 % of control and the T/C [6] is reported as 109 % of control.
In the case of `CCCCCCC[CH2][Sn](=[O])[CH2]CCCCCCC`, the T/C (dose: 3.12 mg/kg/injection, schedule: Q01DX009 (ip), vehicle: saline) is reported as 120 % of control, the T/C (dose: 6.25 mg/kg/injection, schedule: Q01DX009 (ip), vehicle: saline) is reported as 100 % of control and the T/C [13] is reported as 115 % of control. For the same compound, the T/C (dose: 22.0 mg/kg/injection, schedule: Q04DX003 (ip), vehicle: other) was 109 % of control, the T/C (dose: 25.0 mg/kg/injection, schedule: Q01DX009 (ip), vehicle: Klucel (hydroxypropylcellulose) (HPC)) was 86 % of control and the T/C (dose: 33.0 mg/kg/injection, schedule: Q04DX003 (ip), vehicle: Klucel (hydroxypropylcellulose) (HPC)) was 100 % of control and 114 % of control. The T/C (dose: 33.0 mg/kg/injection, schedule: Q04DX003 (ip), vehicle: other) was 118 % of control, the T/C (dose: 50.0 mg/kg/injection, schedule: Q04DX003 (ip), vehicle: other) was 100 % of control and the T/C [7] was 90 % of control.
For `CC1=C(c2ccccc2)C(c2ccccc2)C(/C=C/c2ccccc2)=NC=C1c1ccccc1` (centres undefined), the T/C [8] was 108 % of control, the T/C [9] was 94 % of control and the T/C [10] was 97 % of control.
`CCCCCCCCCCCC(=O)c1ccc(Cl)cc1` was tested, and the T/C [9] was 91 % of control, the T/C [10] was 92 % of control and the T/C [14] was 109 % of control.
For `COc1ccc2c(Nc3ccc(NS(C)(=O)=O)cc3)c3ccccc3nc2c1`, the T/C (dose: 0.66 mg/kg/injection, schedule: Q01DX009 (ip), vehicle: saline with Tween-80) was 169 % of control, the T/C (dose: 1.0 mg/kg/injection, schedule: Q01DX009 (ip), vehicle: saline with Tween-80) was 194 % of control and the T/C (dose: 1.5 mg/kg/injection, schedule: Q01DX009 (ip), vehicle: saline with Tween-80) was 201 % of control. For the same compound, the T/C (dose: 2.66 mg/kg/injection, schedule: Q04DX003 (ip), vehicle: saline with Tween-80) was 150 % of control, the T/C (dose: 4.0 mg/kg/injection, schedule: Q04DX003 (ip), vehicle: saline with Tween-80) was 163 % of control and the T/C (dose: 6.0 mg/kg/injection, schedule: Q04DX003 (ip), vehicle: saline with Tween-80) was 172 % of control. For the same compound, the T/C (dose: 9.0 mg/kg/injection, schedule: Q04DX003 (ip), vehicle: saline with Tween-80) was 168 % of control, the T/C (dose: 22.0 mg/kg/injection, schedule: Q04DX003 (ip), vehicle: saline with Tween-80) was 200 % of control and the T/C (dose: 25.0 mg/kg/injection, schedule: Q04DX003 (ip), vehicle: saline) was 254 % of control. For the same compound, the T/C (dose: 33.0 mg/kg/injection, schedule: Q04DX003 (ip), vehicle: saline with Tween-80) was 227 % of control, the T/C [15] was 231 % of control and the T/C [1] was 240 % of control. For the same compound, the T/C (dose: 75.0 mg/kg/injection, schedule: Q04DX003 (ip), vehicle: saline with Tween-80) was 281 % of control and the T/C [2] was 104 % of control.
`CN1C(=O)C(C2(C3C(=O)N(C)C(=O)N(C)C3=O)C(=O)N(C)C(=O)N(C)C2=O)C(=O)N(C)C1=O` was tested, and the T/C [11] was 108 % of control, the T/C [12] was 104 % of control and the T/C (dose: 400.0 mg/kg/injection, schedule: Q01DX001 (ip), vehicle: saline with Tween-80) was 102 % of control.
In the case of `O=C(COc1ccccc1[N+](=O)[O-])Nc1cccnc1`, the T/C [4] is reported as 100 % of control, the T/C [5] is reported as 95 % of control and the T/C [6] is reported as 100 % of control.
For `Nc1ccccc1C(=O)N/N=C\c1ccc(O)cc1`, the T/C [9] was 110 % of control and the T/C [10] was 94 % of control.
With `C[N+]1(C)N=C([O-])N(c2ccccc2C(F)(F)F)C1=O` the T/C [8] was 87 % of control and the T/C [9] was 92 % of control.
`NC(=O)CN1C(=O)c2ccccc2C1=O` was tested, and the T/C [9] was 100 % of control, the T/C [4] was 95 % of control and the T/C [10] was 90 % of control. For the same compound, the T/C [5] was 100 % of control, the T/C [14] was 100 % of control and the T/C [6] was 100 % of control.
`O=C1c2cc([N+](=O)[O-])ccc2-c2cc(Cl)c(Cl)cc21` was tested, and the T/C (dose: 50.0 mg/kg/injection, schedule: Q01DX001 (ip), vehicle: saline sonified) was 86 % of control, the T/C (dose: 100.0 mg/kg/injection, schedule: Q01DX001 (ip), vehicle: saline sonified) was 100 % of control and the T/C (dose: 200.0 mg/kg/injection, schedule: Q01DX001 (ip), vehicle: saline sonified) was 90 % of control.
In the case of `CN(C)C/C=C(/c1ccc(Br)cc1)c1cccnc1`, the T/C [13] is reported as 89 % of control, the T/C (dose: 25.0 mg/kg/injection, schedule: Q01DX009 (ip), vehicle: saline) is reported as 103 % of control and the T/C (dose: 50.0 mg/kg/injection, schedule: Q01DX009 (ip), vehicle: saline) is reported as 97 % of control.
`CCSC1(SCC)C(=O)OC2=C(CCCC2)C1N(C)C` (centres undefined) was tested, and the T/C [8] was 90 % of control, the T/C [9] was 103 % of control and the T/C [10] was 105 % of control.
`Cc1cc2c(cc1C)C(O)C(N1CCN(C)CC1)CCC2` (centres undefined) was tested, and the T/C [15] was 109 % of control, the T/C [4] was 100 % of control and the T/C [5] was 100 % of control.
For `COc1cc2c(cc1C(C)C)CCC1C(C)(C#N)CCCC21C` (centres undefined), the T/C [9] was 110 % of control, the T/C [10] was 110 % of control and the T/C [14] was 95 % of control.
For `CCCCCCCCCCSC#N`, the T/C (dose: 20.0 mg/kg/injection, schedule: Q04DX003 (ip), vehicle: saline) was 87 % of control, the T/C (dose: 40.0 mg/kg/injection, schedule: Q04DX003 (ip), vehicle: saline) was 91 % of control and the T/C (dose: 80.0 mg/kg/injection, schedule: Q04DX003 (ip), vehicle: saline) was 91 % of control.
`Nc1ccccc1-n1nc2ccc3ccccc3c2n1` was tested, and the T/C [9] was 105 % of control, the T/C (dose: 132.0 mg/kg/injection, schedule: Q01DX009 (ip), vehicle: saline with Tween-80) was 90 % of control and the T/C [10] was 100 % of control. The T/C (dose: 300.0 mg/kg/injection, schedule: Q01DX009 (ip), vehicle: saline with Tween-80) was 95 % of control and the T/C [14] was 105 % of control.
With `CCN(CCNc1ccc(C)c2sc3ccccc3c(=O)c12)CC(C)(C)O` the T/C (dose: 35.0 mg/kg/injection, schedule: Q01DX009 (ip), vehicle: saline) was 108 % of control, the T/C (dose: 44.0 mg/kg/injection, schedule: Q04DX003 (ip), vehicle: saline) was 105 % of control and the T/C (dose: 66.0 mg/kg/injection, schedule: Q04DX003 (ip), vehicle: saline) was 120 % of control. The T/C (dose: 100.0 mg/kg/injection, schedule: Q01DX009 (ip), vehicle: saline) was 159 % of control, the T/C (dose: 132.0 mg/kg/injection, schedule: Q04DX003 (ip), vehicle: saline) was 160 % of control and the T/C [3] was 185 % of control. The T/C (dose: 225.0 mg/kg/injection, schedule: Q01DX009 (ip), vehicle: saline) was 90 % of control.
